Measured values published in US6348461B1, “6,7-asymmetrically disubstituted quinoxalinecarboxylic acid derivatives, addition salts thereof, and processes for the preparation of both” (Kyorin Pharmaceutical Co., Ltd., priority 1997, dated 2002).
Structures can show the parent of a compound that is named as a salt.

Columns and labels:
AMPA receptor = assay: Binding experiment to AMPA receptor ([3H]-AMPA displacement, crude synaptosome membrane preparations); parameters: species or system rats; settings: crude synaptosome membranes from rat cerebral cortex; [3H]-AMPA 5 nM; potassium thiocyanate 100 mM; 30 minutes at 0° C.; Ki converted from IC50
Description: Binding Experiment to AMPA Receptor
After the reactions were stopped by suction filtration, the radio activity on the filter was measured with liquid scintillation counter. The specific binding of [^3H]-AMPA was determined by subtracting nonspecific binding level in the presence of glutamic acid (0.1 mM) from overall binding level.

SMILES | Ki (AMPA receptor) [nM] | melting point
O=C(O)c1nc2cc(F)c([N+](=O)[O-])cc2[nH]c1=O [Example 6, 3,4-Dihydro-7-fluoro-6-nitro-3-oxoquinoxaline-2-carboxylic Acid] | 2010 | 
O=C(O)c1nc2cc(N3CCOCC3)c([N+](=O)[O-])cc2[nH]c1=O [Example 35, 3,4-Dihydro-7-morpholino-6-nitro-3-oxoquinoxaline-2-carboxylic Acid] | 2040 | 213.5 to 214.5 °C
O=C(Nc1ccccc1F)OCc1cn(-c2cc3nc(C(=O)O)c(=O)[nH]c3cc2[N+](=O)[O-])cn1 [Example 96] | 28.2 | 251 to 253 °C (dec.)
O=C(O)c1nc2cc(-n3ccnc3)c([N+](=O)[O-])cc2[nH]c1=O [Example 36, 3,4-Dihydro-7-(imidazole-1-yl)-6-nitro-3-oxoquinoxaline-2-carboxylic Acid] | 450 | > 300 °C
O=C(Nc1ccccc1)OCc1cn(-c2cc3nc(C(=O)O)c(=O)[nH]c3cc2[N+](=O)[O-])ccc1=O [Example 121, 3,4-Dihydro-6-nitro-3-oxo-7-(3-((N-phenylcarbamoyloxy)methyl)-4-pyridone-1-yl)quinoxaline-2-carboxylic Acid] | 172 | 230 to 232 °C (dec.)
O=C(O)c1nc2cc(Br)c([N+](=O)[O-])cc2[nH]c1=O [Example 7, 7-Bromo-3,4-dihydro-6-nitro-3-oxoquinoxaline-2-carboxylic Acid] | 630 | 
O=C(O)c1nc2cc(-n3ccc(=O)cc3)c([N+](=O)[O-])cc2[nH]c1=O [Example 37, 3,4-Dihydro-6-nitro-3-oxo-7-(4-pyridone-1-yl)quinoxaline-2-carboxylic Acid] | 330 | 283 to 285 °C
Cl.O=C(O)c1nc2cc(Cn3ccnc3)c([N+](=O)[O-])cc2[nH]c1=O [Example 66, 3,4-Dihydro-7-(imidazole-1-yl)methyl-6-nitro-3-oxoquinoxaline-2-carboxylic Acid Hydrochloride] | 360 | > 300 °C
O=C(Nc1cccc(Br)c1)OCc1cn(-c2cc3nc(C(=O)O)c(=O)[nH]c3cc2[N+](=O)[O-])ccc1=O [Example 123] | 48.1 | 199 to 201 °C (dec.)
O=C(O)c1nc2cc(Cl)c([N+](=O)[O-])cc2[nH]c1=O [Example 5, 7-Chloro-3,4-dihydro-6-nitro-3-oxoquinoxaline-2-carboxylic Acid] | 1260 | 
Cc1cc2nc(C(=O)O)c(=O)[nH]c2cc1[N+](=O)[O-] [Example 8, 3,4-Dihydro-7-methyl-6-nitro-3-oxoquinoxaline-2-carboxylic Acid] | 330 | 239 to 242 °C
O=C(O)c1nc2cc(Oc3ccccc3)c([N+](=O)[O-])cc2[nH]c1=O [Example 62, 3,4-Dihydro-6-nitro-3-oxo-7-phenoxyquinoxaline-2-carboxylic Acid] | 860 | 154 to 156 °C (dec.)
NC(=O)c1nc2cc(F)c([N+](=O)[O-])cc2[nH]c1=O [Example 69, 3,4-Dihydro-7-fluoro-6-nitro-3-oxoquinoxaline-2-carboxamide] |  | > 300 °C
O=C(O)c1nc2cc(CN3CCOCC3)c([N+](=O)[O-])cc2[nH]c1=O (as salt: hydrochloride) [Example 160, 3,4-Dihydro-7-(morpholine-1-yl)methyl-6-nitro-3-oxoquinoxaline-2-carboxylic Acid Hydrochloride] |  | 209 to 211 °C (dec.)
COc1ccccc1N1CCN(c2cc3nc(C(=O)O)c(=O)[nH]c3cc2[N+](=O)[O-])CC1 [Example 59, 3,4-Dihydro-7-(4-(2-methoxyphenyl)piperazine-1-yl)-6-nitro-3-oxoquinoxaline-2-carboxylic Acid] |  | 204 to 206 °C
COc1ccc(NC(=O)OCc2cn(-c3cc4nc(C(=O)[O-])c(=O)[nH]c4cc3[N+](=O)[O-])cn2)cc1.[Na+] [Example 108] |  | 265 to 267 °C (dec.)
CN(C)c1cc2nc(C(=O)O)c(=O)[nH]c2cc1[N+](=O)[O-] [Example 39, 3,4-Dihydro-7-dimethylamino-6-nitro-3-oxoquinoxaline-2-carboxylic Acid] | 910 | 
O=C(Nc1ccccc1C(F)(F)F)OCc1cn(-c2cc3nc(C(=O)O)c(=O)[nH]c3cc2[N+](=O)[O-])cn1 [Example 101] | 32.3 | 230 to 232 °C (dec.)
